Values of other authors as cited in EP4434551A1, “METHOD FOR DIAGNOSING AND TREATING NIS-EXPRESSING CARCINOMAS AND METASTASES” (Nuske, Andreas, priority 2023, dated 2024).

Test system: NIS gene
Conditions: breast cancer cell line MCF-7

For `CC1=C(/C=C/C(C)=C/C=C/C(C)=C/C(=O)O)C(C)(C)CCC1` [tRA, trans-retinoic acid], the “induction of the NIS gene” value is given as “induction of the NIS gene”.
